Measured values published in patent US7811832B2, “Methods for preserving the viability of photoreceptor cells by anti-FAS-ligand/anti-FAS-receptor antibodies” (Massachusetts Eye and Ear Infirmary, priority 2002, dated 2010).

Assays:
[1] = target: T1, caspase 1 (Homo sapiens, UniProt P29466); conditions: cited from earlier work
T1 sequence (P29466 120-297 limits assumed): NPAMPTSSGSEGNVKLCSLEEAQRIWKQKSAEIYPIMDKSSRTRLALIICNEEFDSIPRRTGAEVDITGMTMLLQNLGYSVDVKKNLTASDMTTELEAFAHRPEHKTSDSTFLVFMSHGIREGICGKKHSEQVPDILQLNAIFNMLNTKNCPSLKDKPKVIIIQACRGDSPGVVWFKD
T1 sequence (P29466 317-404 limits assumed): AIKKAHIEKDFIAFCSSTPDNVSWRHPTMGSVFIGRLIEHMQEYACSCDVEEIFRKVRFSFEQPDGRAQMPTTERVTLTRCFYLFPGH

[2] = target: T2, caspase 4 (Homo sapiens, UniProt P49662); conditions: cited from earlier work
T2 sequence (P49662 81-270 limits assumed): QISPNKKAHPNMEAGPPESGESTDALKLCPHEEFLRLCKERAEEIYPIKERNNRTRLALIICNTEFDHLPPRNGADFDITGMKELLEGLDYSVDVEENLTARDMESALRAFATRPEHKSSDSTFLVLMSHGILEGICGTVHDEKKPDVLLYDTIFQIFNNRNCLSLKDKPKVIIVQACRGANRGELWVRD
T2 sequence (P49662 290-377 limits assumed): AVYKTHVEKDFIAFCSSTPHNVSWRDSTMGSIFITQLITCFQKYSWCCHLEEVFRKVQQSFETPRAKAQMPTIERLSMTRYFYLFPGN

[3] = target: T3, caspase 3 (Homo sapiens, UniProt P42574); conditions: cited from earlier work
T3 sequence (P42574 29-175 limits assumed): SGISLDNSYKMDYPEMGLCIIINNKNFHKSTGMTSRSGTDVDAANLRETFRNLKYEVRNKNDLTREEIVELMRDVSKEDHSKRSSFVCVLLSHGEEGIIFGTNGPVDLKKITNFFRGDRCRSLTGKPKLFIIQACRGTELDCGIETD
T3 sequence (P42574 176-277 limits assumed): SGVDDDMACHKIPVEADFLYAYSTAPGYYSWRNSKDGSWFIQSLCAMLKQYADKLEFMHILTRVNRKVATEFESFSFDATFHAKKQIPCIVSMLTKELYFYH

[4] = target: T4, caspase 7 (Homo sapiens, UniProt P55210); conditions: cited from earlier work
T4 sequence (P55210 24-198 limits assumed): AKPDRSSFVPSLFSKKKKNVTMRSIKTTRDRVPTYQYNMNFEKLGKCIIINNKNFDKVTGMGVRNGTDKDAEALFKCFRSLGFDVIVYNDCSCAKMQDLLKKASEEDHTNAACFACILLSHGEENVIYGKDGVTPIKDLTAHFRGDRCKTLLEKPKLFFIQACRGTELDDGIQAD
T4 sequence (P55210 207-303 limits assumed): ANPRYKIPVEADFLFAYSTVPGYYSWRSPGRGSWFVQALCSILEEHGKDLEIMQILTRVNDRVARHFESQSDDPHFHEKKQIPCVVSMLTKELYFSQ

[5] = test system: caspase 9; experiment: Caspase 9 activity (LEHD-pNA cleavage) in detached retina after injection of inhibitor at the time of detachment; type: in vivo, Brown-Norway rats; conditions: 5 μl of 2 mM solution in DMSO into the subretinal space, 24 hours after retinal detachment, normalized to attached retina
Experimental: Briefly, rats were anesthetized with a 50:50 mix of ketamine (100 mg/ml) and xylazine (20 mg/ml), and pupils were dilated with topical phenylephrine (2.5%) and tropicamide (1%). A sclerotomy was created approximately 2 mm posterior to the limbus with a 20-guage microvitreoretinal blade (Walcott Scientific, Marmora, N.J.), with special caution to not damage the lens. A Glaser subretinal injector (32-gauge tip; BD Ophthalmic Systems, Sarasota, Fla.) connected to a syringe filled with 10 mg/ml sodium hyaluronate (Healon®; Pharmacia and Upjohn Co., Kalamazoo, Mich.) was introduced through the sclerotomy into the vitreous cavity. The tip of the subretinal injector was introduced into the subretinal space through a peripheral retinotomy, and the sodium hyaluronate was slowly injected. The neurosensory retina was thus detached from the underlying retinal pigment epithelium. In all experiments, approximately one-third to one-half of the retina was detached. Detachments were made in the left eye, with the right eye serving as the control. […]
Caspase 9 activity was measured using a calorimetric tetrapeptide LEHD-pNA cleavage assay kit according to the manufacturer's instructions (BioVision, Mountain View, Calif.). […] Absorbance was measured at 405 nm in a microplate reader (SpectraMAX 190, Molecular Devices). […]

[6] = test system: photoreceptor cells; experiment: TUNEL staining of outer nuclear layer after experimental retinal detachment; type: in vivo, Brown Norway rats; conditions: detached retina (left eye); 5 μl of 2 mM in DMSO subretinal; 72 hours after detachment; TUNEL-positive cells/100 cells in outer nuclear layer
Experimental: Briefly, the retinal detachments were created in the left eyes of three Brown Norway rats, as described in Example 2, section 2.1. The detachment was located on the temporal portion of the retina, and comprised approximately one third of the total retinal area.
A first rat received the retinal detachment only. A second rat received the retinal detachment and a caspase 9 inhibitor in DMSO. Briefly, immediately after the retina was detached, 5 μl of the zLEHD.fmk (2 mM solution in DMSO) (BioVision) was injected into the subretinal space of the detached retina using a Hamilton Syringe (Hamilton Corp, Reno, Nev.). A third rat received the retinal detachment and DMSO (solvent control). Briefly, 5 μl of DMSO was injected into the subretinal space of the detached retinas as a control for the solvent in which the zLEHD.fmk was dissolved.
The rats were allowed to recover from the surgery and were returned to their cages, as per standard animal care protocols. Seventy-two hours (3 days) after creation of the detachments, the eyes were enucleated and immersion-fixed in 4% paraformaldehyde solution for 24 hours. The fixed eyes were then embedded in paraffin and sectioned for histologic analysis. […]
The number of TUNEL-positive cells/100 cells in the outer nuclear layer were counted for 3 high power fields per section for 2 separate slides.

| caspase 9 activity, % of the control level [5] | Substance | Ki [1] | Ki [2] | Ki [3] | Ki [4] | % TUNEL positive cells [6] |
| --- | --- | --- | --- | --- | --- | --- |
|  | Ac-Tyr-Val-Ala-Asp-aldehyde | 10 nM | 10 nM | ≥ 50000 nM | ≥ 50000 nM |  |
| approximately 50% | z-Leu-Glu-His-Asp-fluoromethylketone [zLEHD.fmk] |  |  |  |  | 4.6% TUNEL positive |
